A word on the MIC: it is the least concentration at which growth counts as inhibited. Read a high MIC as a need for much substance. Usually IC50 stands for the concentration that inhibits the measured activity by half. A lower IC50 goes with greater potency.

Molecules are shown by their SMILES. In brackets after ≈: the same amount, converted by molar mass.

The values below come from ChEMBL document CHEMBL4184130, “Zamamidine D, a Manzamine Alkaloid from an Okinawan Amphimedon sp. Marine Sponge” (J Nat Prod, 2017).

The subject of one experiment is Escherichia coli. Kind of experiment: Antimicrobial activity against Escherichia coli ATCC 25922 incubated for 72 hrs. It is filed as functional. As to conditions: ATCC 25922, 72 h.
The test system of a further experiment is Staphylococcus aureus. Briefly: Antimicrobial activity against Staphylococcus aureus 209P incubated for 72 hrs. It is filed as functional.
For another experiment, the system named is Bacillus subtilis. Kind of experiment: Antimicrobial activity against Bacillus subtilis PC1219 incubated for 72 hrs. Format: functional. The settings on record: PC1219, 72 h.
The test system of the next experiment is Micrococcus luteus. Kind of experiment: Antimicrobial activity against Micrococcus luteus IFM2066 incubated for 72 hrs. Format: functional. As to conditions: IFM2066, 72 h.
The next experiment deals with Aspergillus niger. Briefly: Antimicrobial activity against Aspergillus niger IFM62678 incubated for 72 hrs. Format: functional, organism-based. As to conditions: IFM62678, 72 h.
The subject of experiment [1] is Trichophyton mentagrophytes. Kind of experiment: Antimicrobial activity against Trichophyton mentagrophytes IFM62679 incubated for 72 hrs. It is filed as functional, organism-based. The settings on record: IFM62679, 72 h.
The next experiment deals with Candida albicans. Briefly: Antimicrobial activity against Candida albicans IFM62680 incubated for 72 hrs. As to conditions: IFM62680, 72 h. It is filed as functional, organism-based.
The test system of a further experiment is Cryptococcus neoformans. Briefly: Antimicrobial activity against Cryptococcus neoformans IFM62681 incubated for 72 hrs. It is filed as functional, organism-based. The settings on record: IFM62681, 72 h.

On to `NCCc1c(C(C2=C[C@@]3(O)CC/C=C\CCCCN4CC[C@@H]2[C@]2(C[C@@H]5/C=C\CCCCN5[C@H]23)C4)c2[nH]c3ccccc3c2CCN)[nH]c2ccccc12`, for which the MIC against Escherichia coli is 32 µg/mL (≈ 44.9 µM); with Staphylococcus aureus, 8 µg/mL (≈ 11.2 µM); against Bacillus subtilis, 8 µg/mL (≈ 11.2 µM); with Micrococcus luteus it was 8 µg/mL (≈ 11.2 µM). The IC50 worked out at 16 µg/mL (≈ 22.4 µM) in the experiment with Aspergillus niger, 8 µg/mL (≈ 11.2 µM) in experiment [1], 16 µg/mL (≈ 22.4 µM) in the experiment with Candida albicans and 2 µg/mL (≈ 2.8 µM) in the experiment with Cryptococcus neoformans.
